Assays:
[1] = Stability of chelates to autoclaving (CM-Sephadex assay); type: physicochemical; details: for % of total / dpm: autoclaved 30 minutes at 121° C.
Experimental: A sample comprising 5 ml of Sm-DTPA, La-DTPA, and Eu-DTPA prepared in Examples 9, 10, and 11 were placed in 10 ml glass bottles, each capped with a grey butyl rubber cap, and the caps were crimped. Samples were autoclaved for 30 minutes at 121° C.
Five ml of each of Sm-DOTA, La-DOTA, and Eu-DOTA prepared in Examples 13, 14, and 15 were placed in 10 ml glass bottles capped with a grey butyl rubber cap and crimped. Samples were autoclaved for 30 minutes at 121° C. Samples were allowed to cool to room temperature and were assayed as described in Examples 25.

[2] = Kinetics of blood depletion and urine accumulation of chelates in the rat; type: in vivo; details: average of three rats
Experimental: One half ml of Sm-DTPA (0.01 mg/kg), dissolved in saline (pH 7), is injected into the tail vein of three rats. Samples of blood are obtained at 10, 30 and 60 minutes following injection and analyzed for Sm-DTPA by neutron activation. The percent of starting amount of the Sm-DTPA at each time interval is presented in Table 18 (last column on right). Similarly, the accumulation of Sm-DTPA in the rat urine at two times is shown in the last column of Table 18.
One half ml of Technetium-99m-DTPA (1 millicurie), Gd-DTPA (0.05 mg/kg), and Sm-DTPA (0.01 mg/kg) are each dissolved in saline (pH 7), and are injected simultaneously into the tail vein of three rats. Samples of blood are obtained at 10, 30 and 60 minutes following injection and analyzed for ^99mTc-DTPA (gamma counting), Gd-DTPA (T1 relaxation) and Sm-DTPA (neutron activation).
One half ml of Sm-DTPA, La-DTPA and Eu-DTPA (each 0.01 mg/kg), dissolved in saline (pH 7) are injected simultaneously into the tail vein of three rats. Samples of blood are obtained at 10, 30 and 60 minutes following injection and analyzed for each element by neutron activation.
Samples of Sm-DTPA, La-DTPA and Eu-DTPA (0.5 ml; 0.01 mg/kg), each dissolved in saline (pH 7), are injected sequentially at 0, 20, and 40 minutes into the tail vein of three rats. Samples of blood are obtained at 10, 30 and 60 min following each injection and analyzed for each element by neutron activation.

[3] = Assay of chelate on carboxymethyl (CM) Sephadex column (chelate formation, charge); type: physicochemical
[4] = Fraction 1: sample diluted 1:10 then 2-3 ml 0.01M Tris pH 7.5 (eluate)
[5] = Fraction 2: 3 ml 0.01M Tris pH 7.5
[6] = Fraction 3: column and contents (retained)
[7] = Fraction 1: 3 ml 0.01M Tris pH 7.5 before sample
[8] = Fraction 2: 1 ml sample then 3 ml 0.01M Tris pH 7.5 (eluate)
[9] = Fraction 3: further 3 ml 0.01M Tris pH 7.5
[10] = Fraction 4: column and contents (retained)

O=C([O-])CN(CCN(CC(=O)[O-])CC(=O)[O-])CCN(CC(=O)[O-])CC(=O)[O-].[Sm+3] [Sm-DTPA]
% eluted from CM-Sephadex column following autoclaving [1]: 100%
% of total [1, 4]: 98 % of total
dpm [1, 4]: 1128928 dpm
% of total [1, 5]: 2 % of total
dpm [1, 5]: 26387 dpm
% of total [1, 6]: 0 % of total
dpm [1, 6]: 1867 dpm
Percent of initial injection, blood ([2]; blood 10 min, Sm-DTPA 0.01 mg/kg i.v. administered alone (Example 29)): 86% of initial injection
Percent of initial injection, blood ([2]; blood 10 min, Sm-DTPA, La-DTPA and Eu-DTPA (each 0.01 mg/kg i.v.) simultaneously administered (Example 31)): 83% of initial injection
Percent of initial injection, blood ([2]; blood 10 min after each injection, Sm-DTPA, La-DTPA, Eu-DTPA (0.01 mg/kg i.v.) sequentially administered at 0, 20, 40 minutes (Example 32)): 81% of initial injection
Percent of initial injection, blood ([2]; blood 10 min after i.v. injection, ^99mTc-DTPA, Gd-DTPA and Sm-DTPA simultaneously administered (Example 30)): 88% of initial injection
Percent of initial injection, blood ([2]; blood 30 min, Sm-DTPA 0.01 mg/kg i.v. administered alone (Example 29)): 61% of initial injection
Percent of initial injection, blood ([2]; blood 30 min, Sm-DTPA, La-DTPA and Eu-DTPA simultaneously administered (Example 31)): 61% of initial injection
Percent of initial injection, blood ([2]; blood 30 min, ^99mTc-DTPA, Gd-DTPA and Sm-DTPA simultaneously administered (Example 30)): 60% of initial injection
Percent of initial injection, blood ([2]; blood 30 min after each injection, sequentially administered (Example 32)): 59% of initial injection
Percent of initial injection, blood ([2]; blood 60 min, Sm-DTPA 0.01 mg/kg i.v. administered alone (Example 29)): 28% of initial injection
Percent of initial injection, blood ([2]; blood 60 min, Sm-DTPA, La-DTPA and Eu-DTPA simultaneously administered (Example 31)): 34% of initial injection
Percent of initial injection, blood ([2]; blood 60 min, ^99mTc-DTPA, Gd-DTPA and Sm-DTPA simultaneously administered (Example 30)): 33% of initial injection
Percent of initial injection, blood ([2]; blood 60 min after each injection, sequentially administered (Example 32)): 29% of initial injection
Percent of initial injection, urine ([2]; urine 30 min, Sm-DTPA 0.01 mg/kg i.v. administered alone (Example 29)): 24% of initial injection
Percent of initial injection, urine ([2]; urine 30 min, Sm-DTPA, La-DTPA and Eu-DTPA simultaneously administered (Example 31)): 22% of initial injection
Percent of initial injection, urine ([2]; urine 30 min, ^99mTc-DTPA, Gd-DTPA and Sm-DTPA simultaneously administered (Example 30)): 26% of initial injection
Percent of initial injection, urine ([2]; urine 30 min, sequentially administered (Example 32)): 20% of initial injection
Percent of initial injection, urine ([2]; urine 180 min, Sm-DTPA 0.01 mg/kg i.v. administered alone (Example 29)): 91% of initial injection
Percent of initial injection, urine ([2]; urine 180 min, Sm-DTPA, La-DTPA and Eu-DTPA simultaneously administered (Example 31)): 90% of initial injection
Percent of initial injection, urine ([2]; urine 180 min, ^99mTc-DTPA, Gd-DTPA and Sm-DTPA simultaneously administered (Example 30)): 90% of initial injection
Percent of initial injection, urine ([2]; urine 180 min, sequentially administered (Example 32)): 89% of initial injection
% eluted from the CM-Sephadex column [3]: 98%
% of total [3, 7]: 0 % of total
dpm [3, 7]: 0 dpm
% of total [3, 8]: 97 % of total
dpm [3, 8]: 148208 dpm
% of total [3, 9]: 1 % of total
dpm [3, 9]: 19089 dpm
% of total [3, 10]: 2 % of total
dpm [3, 10]: 24257 dpm
time within which the chelate forms ([3]; room temperature, Tris pH 7.5): ≤ 5 min

— patent US7048907B2, “Synthesis, compositions and methods for the measurement of the concentration of stable-isotope labeled compounds in life forms and life form excretory products” (BioPhysics Assay Laboratory, Inc., priority 2001, dated 2006)
